The source of these data is PMC3462168 (Analytical biochemistry, 2010).

One may read the inhibition as how much of the control response was suppressed. Broadly, the EC50 is the concentration needed to bring the measured effect to its halfway point.

Peptide text beside a SMILES is read from it. * marks the point of attachment. 5FAM = O=C1OC2(c3ccc(O)cc3Oc3cc(O)ccc32)c2ccc(C(=O)*)cc21

For experiment [1], the target named is T1, hRSV F protein 5-Helix Bundle (5HB) (Human respiratory syncytial virus A, UniProt P03420). The experiment in a line: Competitive FP binding assay. More on the design: species or system hRSV strain A2. As to conditions: for inhibition at 100 µM: read-out: % Inhibition (100 µM).
The test system of the next experiment is hRSV. Briefly: Antiviral activity of C20. Format: cell-based. As to conditions: read-out: EC50, antiviral activity; methods only in supporting information.
The target in experiment [2] is T1, hRSV F protein 5-Helix Bundle (5HB). Briefly: ELISA of Fl-C35 binding to 5HB. Further details: species or system hRSV strain A2. As to conditions: data in supporting information.
The subject of experiment [3] is EBV gH/gL complex. As to conditions: 5 nM Fl-C35, increasing amount of EBV gH/gL.
For experiment [4], the system named is EBV gH/gL complex. The settings on record: read-out: IC50 of binding to EBV gH/gL protein; cited from earlier work.
The test system of another experiment is hRSV 5HB. Briefly: FP specificity cross-test: EBV gp42 FITC-30mer against hRSV 5HB. Format: binding, hRSV strain A2. The settings on record: 5 nM FITC-30mer, wide range of 5HB concentrations.

Regarding `CC[C@H](C)[C@H](N)C(=O)N[C@@H](CO)C(=O)N[C@@H](CCC(N)=O)C(=O)N[C@H](C(=O)N[C@@H](CC(N)=O)C(=O)N[C@@H](CCC(=O)O)C(=O)N[C@@H](CCCCN)C(=O)N[C@H](C(=O)N[C@@H](CC(N)=O)C(=O)N[C@@H](CCC(N)=O)C(=O)N[C@@H](CO)C(=O)N[C@@H](CC(C)C)C(=O)N[C@@H](C)C(=O)N[C@@H](Cc1ccccc1)C(=O)N[C@H](C(=O)N[C@@H](CCCNC(=N)N)C(=O)N[C@@H](CCCCN)C(=O)N[C@@H](CO)C(=O)N[C@@H](CC(=O)O)C(=O)N[C@@H](CCC(=O)O)C(=O)O)[C@@H](C)CC)[C@@H](C)CC)C(C)C` [C20] (H-ISQVNEKINQSLAFIRKSDE-OH), in experiment [1], the inhibition at 100 µM is above 90%. Further, the 50% effective concentration (EC50) with hRSV was above 12500 nM.

As for `CC[C@H](C)[C@H](NC(=O)[C@H](Cc1ccccc1)NC(=O)[C@H](C)NC(=O)[C@H](CC(C)C)NC(=O)[C@H](CO)NC(=O)[C@H](CCC(N)=O)NC(=O)[C@H](CC(N)=O)NC(=O)[C@@H](NC(=O)[C@H](CCCCN)NC(=O)[C@H](CCC(=O)O)NC(=O)[C@H](CC(N)=O)NC(=O)[C@@H](NC(=O)[C@H](CCC(N)=O)NC(=O)[C@H](CO)NC(=O)[C@@H](NC(=O)[C@H](CO)NC(=O)[C@H](C)NC(=O)[C@H](CC(=O)O)NC(=O)[C@H](Cc1ccccc1)NC(=O)[C@H](CCC(=O)O)NC(=O)[C@H](CC(=O)O)NC(=O)[C@H](CO)NC(=O)[C@@H]1CCCN1C(=O)[C@H](Cc1ccccc1)NC(=O)[C@@H](N)C(C)C)[C@@H](C)CC)C(C)C)[C@@H](C)CC)C(=O)N[C@@H](CCCNC(=N)N)C(=O)N[C@@H](CCCCN)C(=O)N[C@@H](CO)C(=O)N[C@@H](CC(=O)O)C(=O)N[C@@H](CCC(=O)O)C(=O)O` [C30] (H-VFPSDEFDASISQVNEKINQSLAFIRKSDE-OH), in experiment [1], the inhibition at 100 µM worked out at 100%.

Turning to `CC[C@H](C)[C@H](NC(=O)[C@H](Cc1ccccc1)NC(=O)[C@H](C)NC(=O)[C@H](CC(C)C)NC(=O)[C@H](CO)NC(=O)[C@H](CCC(N)=O)NC(=O)[C@H](CC(N)=O)NC(=O)[C@@H](NC(=O)[C@H](CCCCN)NC(=O)[C@H](CCC(=O)O)NC(=O)[C@H](CC(N)=O)NC(=O)[C@@H](NC(=O)[C@H](CCC(N)=O)NC(=O)[C@H](CO)NC(=O)[C@@H](NC(=O)[C@H](CO)NC(=O)[C@H](C)NC(=O)[C@H](CC(=O)O)NC(=O)[C@H](Cc1ccccc1)NC(=O)[C@H](CCC(=O)O)NC(=O)[C@H](CC(=O)O)NC(=O)[C@H](CO)NC(=O)[C@@H]1CCCN1C(=O)[C@H](Cc1ccccc1)NC(=O)[C@@H](NC(=O)[C@H](CC(C)C)NC(=O)[C@@H]1CCCN1C(=O)[C@H](CC(=O)O)NC(=O)[C@@H](N)Cc1ccc(O)cc1)C(C)C)[C@@H](C)CC)C(C)C)[C@@H](C)CC)C(=O)N[C@@H](CCCNC(=N)N)C(=O)N[C@@H](CCCCN)C(=O)N[C@@H](CO)C(=O)N[C@@H](CC(=O)O)C(=O)N[C@@H](CCC(=O)O)C(=O)N[C@@H](CC(C)C)C(=O)O` [C35] (H-YDPLVFPSDEFDASISQVNEKINQSLAFIRKSDEL-OH), in experiment [1], the IC50 came to 38.5 nM and the inhibition at 100 µM turned out to be 100%.

Take `CC[C@H](C)[C@H](NC(=O)[C@H](Cc1ccccc1)NC(=O)[C@H](C)NC(=O)[C@H](CC(C)C)NC(=O)[C@H](CO)NC(=O)[C@H](CCC(N)=O)NC(=O)[C@H](CC(N)=O)NC(=O)[C@@H](NC(=O)[C@H](CCCCN)NC(=O)[C@H](CCC(=O)O)NC(=O)[C@H](CC(N)=O)NC(=O)[C@@H](NC(=O)[C@H](CCC(N)=O)NC(=O)[C@H](CO)NC(=O)[C@@H](NC(=O)[C@H](CO)NC(=O)[C@H](C)NC(=O)[C@H](CC(=O)O)NC(=O)[C@H](Cc1ccccc1)NC(=O)[C@H](CCC(=O)O)NC(=O)[C@H](CC(=O)O)NC(=O)[C@H](CO)NC(=O)[C@@H]1CCCN1C(=O)[C@H](Cc1ccccc1)NC(=O)[C@@H](NC(=O)[C@H](CC(C)C)NC(=O)[C@@H]1CCCN1C(=O)[C@H](CC(=O)O)NC(=O)[C@H](Cc1ccc(O)cc1)NC(=O)c1ccc2c(c1)C(=O)OC21c2ccc(O)cc2Oc2cc(O)ccc21)C(C)C)[C@@H](C)CC)C(C)C)[C@@H](C)CC)C(=O)N[C@@H](CCCNC(=N)N)C(=O)N[C@@H](CCCCN)C(=O)N[C@@H](CO)C(=O)N[C@@H](CC(=O)O)C(=O)N[C@@H](CCC(=O)O)C(=O)N[C@@H](CC(C)C)C(=O)O` [Fl-C35] (5FAM-YDPLVFPSDEFDASISQVNEKINQSLAFIRKSDEL-OH): in experiment [2], the “Specific binding of Fl-C35 to 5HB in ELISA” value is “confirmed”. Further, in the experiment with EBV gH/gL complex [3], the “Binding of Fl-C35 to EBV gH/gL complex (negative control)” value was “no evidence of nonspecific binding”.

Consider “KPNVEVWPVAAPPPVAEQEYGDKEVKLPHW [FITC-30mer]”, for which the IC50 with EBV gH/gL complex [4] is 1.3 nM. Moreover, the “Binding of EBV gp42 FITC-30mer to hRSV 5HB (negative control)” value in the experiment with hRSV 5HB is listed as “no evidence of nonspecific binding”.
